Reference: patent US20220378923A1, “BET DEGRADER” (KYOWA KIRIN CO., LTD., priority 2019, published 2022)

Target: T1, interaction between BRD2 and E3 ligase DCAF16 (Homo sapiens, UniProt P25440)
T1 construct: expressed in transfected cells; host or cells: HEK293
Assay: Verification of BET-DCAF16 interaction, NanoBRET in HEK293 cells (Test Example 7)
Assay type: cell-based
Details: test compound 10 μmol/L, 2 hours; HEK293 cells expressing Nluc-BRD2 and DCAF16-HaloTag; bortezomib; average of n=3
Method: HEK293 cells (ATCC® CRL-1573™) were cultured using a carbon dioxide gas incubator (95% air, 5% CO2) at 37° C. in DMEM, High Glucose, Pyruvate (DMEM: Code No. 11995073, Thermo Fisher Scientific) in which inactivated fetal bovine serum (FBS: Code No. 10099-148 (Thermo Fisher Scientific) was added in an amount to give a final concentration of 10 vol %. A Falcon® 100 mm×20 mm cell culture dish (Code No. 353003, CORNING) was used for cell culture.
A sequence encoding BRD2 was cleaved from pFN21AB3863 (Code No. FHC01342, Kazusa Genome Technologies) using Flexi Enzyme Blend (SgfI and PmeI) (Code No. R1852, Promega) and recombined with pFN31A Nluc CMV-Hygro Flexi® Vector (Code No. N131A, Promega) similarly cleaved using Flexi Enzyme Blend (SgfI and PmeI) to prepare a plasmid pFN31A_BRD2 expressing BRD2 with an Nluc tag added to the N-terminal. A sequence encoding DCAF16 having sgfI and pmeI restriction enzyme sites at both ends was amplified and purified by polymerase chain reaction using two primers, […] (SEQ ID NO: 4) and […] (SEQ ID NO: 5) from cDNA derived from HEK293 cells. Cleavage was performed using Flexi Enzyme Blend (SgfI and PmeI), and pFC27K HaloTag® CMV-neo Flexi® Vector (Code No. G8431, Promega) cleaved using Carboxy Flexi Enzyme Blend (Sgf I and EcoICR I) (Code No. R1901, Promega) was recombined to prepare a plasmid pFC27K_DCAF16 expressing DCAF16 with HaloTag added to the C-terminal. Sequencing was performed and confirmed that the sequence encoding DCAF16 matched NM_001345880.
Cultured HEK293 cells were washed with DPBS, no calcium, no magnesium (DPBS: Code No. 14190144, Thermo Fisher Scientific) and harvested using TrypLE™ Express Enzyme (1×), phenol red (TrypLE: Code No. 12605036, Thermo Fisher Scientific), and prepared to be 4.0×10^5 cells/mL in DMEM. A volume of 12 mL of the cell suspension was seeded in a Falcon® 100 mm×20 mm cell culture dish and cultured in a carbon dioxide gas incubator at 37° C. for 6 hours. For one dish, 12 μg of pFC27K_DCAF16, 0.12 μg of p FN31A_BRD2, 48 μL of FuGENE® HD Transfection Reagent (Code No. E2312, Promega) were added to 600 μL of Opti-MEM™ I Reduced Serum Medium, no phenol red (Opti-MEM: Code No. 11058021, Thermo Fisher Scientific) and mixed. The mixture was allowed to stand for 15 minutes and added to HEK293 cells. After 20 hours, the cells were washed with DPBS, no calcium, no magnesium, harvested from the dish using TrypLE, and then neutralized in DMEM. After centrifugation, the supernatant was discarded, and the cells were prepared to be 2.2×10^5 cells/mL using Opti-MEM containing 4% FBS. HaloTag® NanoBRET™ 618 Ligand contained in NanoBRET™ Nano-Glo® Detection System (Code No. N1662, Promega) and bortezomib as a proteasome inhibitor were added to be a 1000-fold dilution. In addition, a group was prepared to which DMSO was added instead of HaloTag® NanoBRET™ 618 Ligand. 90 μL of the cell suspension was seeded in CulturPlate-96 (Code No. 6005688, PerkinElmer), and allowed to stand in a carbon dioxide gas incubator at 37° C. for 30 minutes. A volume of 10 mmol/L of a solution of the test compound in DMSO was adjusted to be 100 μmol/L with Opti-MEM, 10 μL of the solution was added to each well, and then the mixture was allowed to stand in a carbon dioxide gas incubator at 37° C. for 2 hours. At this time, all the groups were prepared so that the final concentration of DMSO was 0.1 vol % including the group to which the test compound was not added. NanoBRET™ Nano-Glo® Substrate included in the NanoBRET™ Nano-Glo® Detection System was diluted 100-fold with Opti-MEM. After adding 25 μL of the dilution each and stirring for 30 seconds, measurement was performed with an Emission Filter of 460 nm and 620 nm using EnVision (PerkinElmer). The BRET ratio of 10 μmol/L for each test compound was calculated using the following formula. The experiment was performed by n=3 and the average value was calculated. […]

T1 sequence (P25440 whole entry): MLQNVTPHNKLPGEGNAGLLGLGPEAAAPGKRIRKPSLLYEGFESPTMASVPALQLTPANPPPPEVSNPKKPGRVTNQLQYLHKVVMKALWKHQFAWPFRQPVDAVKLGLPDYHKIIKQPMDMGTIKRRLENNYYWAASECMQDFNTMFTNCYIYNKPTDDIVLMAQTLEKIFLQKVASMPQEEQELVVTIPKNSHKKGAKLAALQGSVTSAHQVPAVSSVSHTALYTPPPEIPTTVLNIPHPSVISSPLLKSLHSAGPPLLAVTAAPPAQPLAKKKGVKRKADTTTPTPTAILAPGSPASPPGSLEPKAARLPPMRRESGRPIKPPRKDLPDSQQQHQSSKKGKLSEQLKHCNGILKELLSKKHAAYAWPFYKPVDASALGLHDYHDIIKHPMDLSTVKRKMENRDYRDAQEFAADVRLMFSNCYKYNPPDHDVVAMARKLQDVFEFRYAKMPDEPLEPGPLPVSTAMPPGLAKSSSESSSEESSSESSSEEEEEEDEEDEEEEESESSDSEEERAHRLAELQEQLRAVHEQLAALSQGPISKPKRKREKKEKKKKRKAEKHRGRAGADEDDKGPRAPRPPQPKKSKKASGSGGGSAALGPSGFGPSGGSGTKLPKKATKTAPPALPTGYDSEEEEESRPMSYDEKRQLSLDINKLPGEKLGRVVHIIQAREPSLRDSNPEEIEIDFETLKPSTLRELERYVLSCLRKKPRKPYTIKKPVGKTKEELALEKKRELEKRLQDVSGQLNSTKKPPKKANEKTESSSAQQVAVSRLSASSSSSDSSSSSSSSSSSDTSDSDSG
T1 sequence (Q9NXF7 whole entry partner): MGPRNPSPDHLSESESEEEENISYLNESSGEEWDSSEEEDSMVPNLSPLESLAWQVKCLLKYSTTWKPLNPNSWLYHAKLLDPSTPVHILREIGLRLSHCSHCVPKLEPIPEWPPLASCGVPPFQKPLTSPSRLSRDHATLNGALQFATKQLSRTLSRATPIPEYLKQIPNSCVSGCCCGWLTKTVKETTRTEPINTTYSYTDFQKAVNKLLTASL

BRET Ratio	SMILES
6.84	CCC(=O)N1c2ccccc2[C@H](Nc2ccc(C(=O)NCCCNC(=O)c3ccc(C4=N[C@@H](CC(=O)OC(C)(C)C)c5nnc(C)n5-c5sc(C)c(C)c54)cc3)cc2)C[C@@H]1C [Compound 1h, tert-Butyl 2-[(S)-2,3,9-trimethyl-4-(4-{[3-(4-{[(2S,4R)-2-methyl-1-propionyl-1,2,3,4-tetrahydroquinolin-4-yl]amino}benzamide)propyl]carbamoyl}phenyl)-6H-thieno[3,2-f][1,2,4]triazolo[4,3-a][1,4]diazepin-6-yl]acetate]
8.03	CCC(=O)N1c2ccccc2[C@H](Nc2ccc(C(=O)NCC(=O)CNC(=O)c3ccc(N[C@@H]4C[C@H](C)N(C(=O)CC)c5ccccc54)cc3)cc2)C[C@@H]1C [Compound 1l, N,N′-(2-Oxopropane-1,3-diyl)bis(4-{[(2S,4R)-2-methyl-1-propionyl-1,2,3,4-tetrahydroquinolin-4-yl]amino}benzamide)]
8.51	CCC(=O)N1c2ccccc2[C@H](Nc2ccc(C(=O)NCc3cn(-c4ccc(N[C@@H]5C[C@H](C)N(C(=O)CC)c6ccccc65)cc4)nn3)cc2)C[C@@H]1C [Compound 3a, 4-{[(2S,4R)-2-Methyl-1-propionyl-1,2,3,4-tetrahydroquinolin-4-yl]amino}-N-{[1-(4-{[(2S,4R)-2-methyl-1-propionyl-1,2,3,4-tetrahydroquinolin-4-yl]amino}phenyl)-1H-1,2,3-triazol-4-yl]methyl}benzamide]
5.96	CCC(=O)N1c2ccccc2[C@H](Nc2ccc(C(=O)N3CCn4c(-c5ccc(N[C@@H]6C[C@H](C)N(C(=O)CC)c7ccccc76)cc5)cnc4C3)cc2)C[C@@H]1C [Compound 3e, 1-[(2S,4R)-2-Methyl-4-({4-[3-(4-{[(2S,4R)-2-methyl-1-propionyl-1,2,3,4-tetrahydroquinolin-4-yl]amino}phenyl)-5,6,7,8-tetrahydroimidazo[1,2-a]pyrazine-7-carbonyl]phenyl}amino)-3,4-dihydroquinolin-1(2H)-yl]propan-1-one]
7.6	CCC(=O)N1c2ccccc2[C@H](Nc2ccc(NC(=O)CCCC(=O)NC3CCN(Cc4cc(O)cc(-c5c(C)noc5C)c4)CC3)cc2)C[C@@H]1C [Compound 12c, N^1-(1-(3-(3,5-Dimethylisoxazol-4-yl)-5-hydroxybenzyl)piperidin-4-yl)-N^5-(4-(((2S,4R)-2-methyl-1-propionyl-1,2,3,4-tetrahydroquinolin-4-yl)amino)phenyl)glutaramide]
5.88	CCC(=O)N1c2ccccc2[C@H](Nc2ccc(NC(=O)CCCC(=O)Nc3ccc(Cn4c(C(=O)OCCN(C)C)cc5c4CCCC5=O)cc3)cc2)C[C@@H]1C [Compound 15a, 2-(Dimethylamino)ethyl 1-(4-(5-((4-(((2S,4R)-2-methyl-1-propionyl-1,2,3,4-tetrahydroquinolin-4-yl)amino)phenyl)amino)-5-oxopentanamide)benzyl)-4-oxo-4,5,6,7-tetrahydro-1H-indole-2-carboxylate]
5.99	CCC(=O)N1c2ccccc2[C@H](Nc2ccc(-n3cc(CNC(=O)c4ccc(Cn5c(CC)cc6c5CCCC6=O)cc4)nn3)cc2)C[C@@H]1C [Compound 15f, 4-((2-Ethyl-4-oxo-4,5,6,7-tetrahydro-1H-indol-1-yl)methyl)-N-((1-(4-(((2S,4R)-2-methyl-1-propionyl-1,2,3,4-tetrahydroquinolin-4-yl)amino)phenyl)-1H-1,2,3-triazol-4-yl)methyl)benzamide]

The remaining lines, values behind:

SMILES	BRET Ratio
Cc1sc2c(c1C)C(c1ccc(C(=O)NCc3cn(-c4ccc(C5=N[C@@H](CC(=O)OC(C)(C)C)c6nnc(C)n6-c6sc(C)c(C)c65)cc4)nn3)cc1)=N[C@@H](CC(=O)OC(C)(C)C)c1nnc(C)n1-2 [Compound 3b, tert-Butyl 2-[(S)-4-(4-{4-[(4-{(S)-6-[2-(tert-butoxy)-2-oxoethyl]-2,3,9-trimethyl-6H-thieno[3,2-f][1,2,4]triazolo[4,3-a][1,4]diazepin-4-yl}benzamide)methyl]-1H-1,2,3-triazol-1-yl}phenyl)-2,3,9-trimethyl-6H-thieno[3,2-f][1,2,4]triazolo[4,3-a][1,4]diazepin-6-yl]acetate]	6.06
CCC(=O)N1c2ccccc2[C@H](Nc2ccc(NC(=O)CCCC(=O)Nc3ccc(N[C@@H]4C[C@H](C)N(C(=O)CC)c5ccccc54)cc3)cc2)C[C@@H]1C [Compound 6k, N^1,N^5-Bis(4-(((2S,4R)-2-methyl-1-propionyl-1,2,3,4-tetrahydroquinolin-4-yl)amino)phenyl)glutaramide]	7.07
CCC(=O)N1c2ccccc2[C@H](Nc2ccc(NC(=O)CCCC(=O)NC3CCC(N[C@@H]4C[C@H](C)N(C(=O)CC)c5ccccc54)CC3)cc2)C[C@@H]1C (stereo partly drawn) [Compound 7o, N^1-((1R,4r)-4-(((2S,4R)-2-Methyl-1-propionyl-1,2,3,4-tetrahydroquinolin-4-yl)amino)cyclohexyl)-N^5-(4-(((2S,4R)-2-methyl-1-propionyl-1,2,3,4-tetrahydroquinolin-4-yl)amino)phenyl)glutaramide]	6.69
CCC(=O)N1c2ccccc2[C@H](Nc2ccc(NC(=O)N3CCN(C(=O)C4CCC(N[C@@H]5C[C@H](C)N(C(=O)CC)c6ccccc65)CC4)CC3)cc2)C[C@@H]1C (stereo partly drawn) [Compound 7p, 4-((1R,4r)-4-(((2S,4R)-2-Methyl-1-propionyl-1,2,3,4-tetrahydroquinolin-4-yl)amino)cyclohexane-1-carbonyl)-N-(4-(((2S,4R)-2-methyl-1-propionyl-1,2,3,4-tetrahydroquinolin-4-yl)amino)phenyl)piperazine-1-carboxamide]	6.8
CCC(=O)N1c2ccccc2[C@H](Nc2ccc(-n3cc(CCNC(=O)[C@H]4CC[C@H](N[C@@H]5C[C@H](C)N(C(=O)CC)c6ccccc65)CC4)nn3)cc2)C[C@@H]1C [Compound 8a, (1R,4r)-4-(((2S,4R)-2-Methyl-1-propionyl-1,2,3,4-tetrahydroquinolin-4-yl)amino)-N-(2-(1-(4-(((2S,4R)-2-methyl-1-propionyl-1,2,3,4-tetrahydroquinolin-4-yl)amino)phenyl)-1H-1,2,3-triazol-4-yl)ethyl)cyclohexane-1-carboxamide]	7.27
CCC(=O)N1c2ccccc2[C@H](Nc2ccc(NC(=O)CNC(=O)N[C@H]3CC[C@H](N[C@@H]4C[C@H](C)N(C(=O)CC)c5ccccc54)CC3)cc2)C[C@@H]1C [Compound 8j, 2-(3-((1R,4R)-4-(((2S,4R)-2-Methyl-1-propionyl-1,2,3,4-tetrahydroquinolin-4-yl)amino)cyclohexyl)ureido)-N-(4-(((2S,4R)-2-methyl-1-propionyl-1,2,3,4-tetrahydroquinolin-4-yl)amino)phenyl)acetamide]	7.07
